According to ChEMBL document CHEMBL3988442, “University of Dundee, Small-Polar-MMV Screening Library” (2021):

test system: Leishmania donovani; test: Leishmania intramacrophage assay; type: functional, organism-based; settings: Leishmania donovani

| SMILES | IC50 [µM] |
| --- | --- |
| Cc1nc(NCc2nnc(C)n2C)c2c(CC(C)C)csc2n1 | > 50.1 |
| Cc1cc(N(C)CC2COc3ccccc3O2)nc(C)n1 (centres undefined) | > 50.1 |
| Cc1cc(N(C)CC2COc3ccccc3O2)nc(N)n1 (centres undefined) | > 50.1 |
| COc1cccc(C(=O)NCc2ccccc2S(=O)(=O)N(C)C)c1 | > 50.1 |
| CN1CCN(CC(NCc2ccc(F)cc2)c2ccccc2)CC1 (centres undefined) | 13.6 |
| COc1ccc(C)cc1CNC(=O)C1=NN(c2ccccc2)C(=O)CN1 | > 50.1 |
| COc1ncccc1CNC(=O)C1=NN(c2ccccc2)C(=O)CN1 | > 50.1 |
| N#Cc1cccc(CNC(=O)C2=NN(c3ccccc3)C(=O)CN2)c1 | > 50.1 |
| N#Cc1ccc(CNC(=O)C2=NN(c3ccccc3)C(=O)CN2)cc1 | > 50.1 |
| COc1ccc(CNC(=O)C2=NN(c3ccc(C)cc3)C(=O)CN2)cc1 | > 50.1 |
| NC(=O)C1CCN(c2cncc(-n3cccn3)n2)CC1 | > 50.1 |
| CN(C)C(=O)C1CCN(c2cncc(-n3cccn3)n2)CC1 | > 50.1 |
| COc1ccccc1C1(CNc2nnc(C)c(C)c2C#N)CCOCC1 | > 50.1 |
| Cc1nnc(NCC2(c3ccccc3)CCOCC2)c(C#N)c1C | > 50.1 |
| Cc1nnc(NCC2(c3ccccc3)CCC2)c(C#N)c1C | > 50.1 |
| CS(=O)(=O)N1CCN(Cc2csc(-c3ncccn3)n2)CC1 | > 50.1 |
| CC(C)CC(=O)N1CCN(Cc2csc(-c3ncccn3)n2)CC1 | > 50.1 |
| OCCN1CCC(F)(F)C2(CCN(c3cccnc3)C2)C1 (centres undefined) | > 50.1 |
| Cc1cnc(N2CCc3onc(COc4cccnc4)c3C2)nc1 | > 50.1 |
| CN(C)C1COC2(CCN(Cc3ccncc3)CC2)C1 (centres undefined) | > 50.1 |

| SMILES | IC50 [µM] |
| --- | --- |
| CCOc1c(CNCCCn2ccnc2)cc(Cl)cc1OC | 27.5 |
| CCOc1ccc(CNCCCn2ccnc2)cc1Cl | 12.6 |
| CC(C)N1CCN(c2ccc3ccc(C(=O)NC4CCCC4)cn23)CC1 | > 50.1 |
| CCN(CC)c1ccc2ccc(C(=O)N(CCOC)CCOC)cn12 | > 50.1 |
| CN1CCN(c2ccc3ccc(C(=O)N4CCCO4)cn23)CC1 | > 50.1 |
| CCN(CC)c1ccc2ccc(C(=O)N3CCCCO3)cn12 | 24.4 |
| O=C(c1ccc2ccc(N3CCN(CC4CC4)CC3)n2c1)N1CCCO1 | > 50.1 |
| CN1CCN(c2ccc3ccc(C(=O)N4CCCCO4)cn23)CC1 | > 50.1 |
| O=C(c1cc[nH]n1)N1CCC(F)(F)C2(CCN(c3ccccn3)C2)C1 (centres undefined) | > 50.1 |
| O=C(c1c[nH]cn1)N1CCC(F)(F)C2(CCN(c3cnccn3)C2)C1 (centres undefined) | > 50.1 |
| O=C(c1c[nH]cn1)N1CCC(F)(F)C2(CCN(c3ncccn3)C2)C1 (centres undefined) | > 50.1 |
| O=C(c1cnccn1)N1CCC(F)(F)C2(CCN(c3ccccn3)C2)C1 (centres undefined) | > 50.1 |
| O=C(CO)N1CCC(F)(F)C2(CCN(c3ccccc3)C2)C1 (centres undefined) | > 50.1 |
| Cn1ccnc1CN1CCC(F)(F)C2(CCN(c3cnccn3)C2)C1 (centres undefined) | > 50.1 |
| Cn1cc(CN2CCC(F)(F)C3(CCN(c4ncc(F)cn4)C3)C2)cn1 (centres undefined) | > 50.1 |
| FC1(F)CCN(Cc2ccccn2)CC12CCN(c1ncccn1)C2 (centres undefined) | > 50.1 |
| c1cc(CN2CCC3(CC2)CC(N2CCCC2)CO3)co1 (centres undefined) | > 50.1 |
| CN(C)C1COC2(CCN(Cc3ccc4c(c3)OCO4)CC2)C1 (centres undefined) | > 50.1 |
| O=C(c1c[nH]cn1)N1CCC(F)(F)C2(CCN(c3ccccn3)C2)C1 (centres undefined) | > 50.1 |
| O=C(O)CN1CCC(F)(F)C2(CCN(c3ccccn3)C2)C1 (centres undefined) | > 50.1 |

| SMILES | IC50 [µM] |
| --- | --- |
| Fc1ccc(CN2CCC(F)(F)C3(CCN(c4cnccn4)C3)C2)cc1 (centres undefined) | > 50.1 |
| Cn1cc(CN2CCC(F)(F)C3(CCN(c4ccccn4)C3)C2)cn1 (centres undefined) | > 50.1 |
| Cn1cc(CN2CCC(F)(F)C3(CCN(c4ncccn4)C3)C2)cn1 (centres undefined) | > 50.1 |
| Cn1cc(CN2CCC(F)(F)C3(CCN(c4cccnc4)C3)C2)cn1 (centres undefined) | > 50.1 |
| Cn1ncc2c1CN(Cc1ccc(F)cc1)CC2COCC1CC1 (centres undefined) | > 50.1 |
| Cn1ccnc1CN1CCC(F)(F)C2(CCN(c3cccnc3)C2)C1 (centres undefined) | > 50.1 |
| Cn1nc(COc2cccnc2)c2c1CCN(CC1CC1)C2 | > 50.1 |
| COCCN(C)C1COC2(CCN(Cc3cccc(F)c3)CC2)C1 (centres undefined) | > 50.1 |
| CN1CCN(C2COC3(CCN(CC4CC4)CC3)C2)CC1 (centres undefined) | > 50.1 |
| FC1(F)CCN(Cc2cccnc2)CC12CCN(c1cnccn1)C2 (centres undefined) | > 50.1 |
| FC1(F)CCN(Cc2ccncc2)CC12CCN(c1cnccn1)C2 (centres undefined) | > 50.1 |
| CN(Cc1ccncc1)C1COC2(CCN(Cc3cccs3)CC2)C1 (centres undefined) | > 50.1 |
| FC1(F)CCN(Cc2ccncc2)CC12CCN(c1cccnc1)C2 (centres undefined) | > 50.1 |
| FC1(F)CCN(Cc2ccccn2)CC12CCN(c1cnccn1)C2 (centres undefined) | > 50.1 |
| CN(Cc1ccncc1)C1COC2(CCN(Cc3ccco3)CC2)C1 (centres undefined) | > 50.1 |
| CN(Cc1ccncc1)C1COC2(CCN(Cc3ccsc3)CC2)C1 (centres undefined) | > 50.1 |
| FC1(F)CCN(Cc2ccncc2)CC12CCN(Cc1ccccn1)C2 (centres undefined) | > 50.1 |
| FC1(F)CCN(Cc2cccnc2)CC12CCN(c1ccccn1)C2 (centres undefined) | > 50.1 |
| CN(Cc1ccncc1)C1COC2(CCN(Cc3ccccn3)CC2)C1 (centres undefined) | > 50.1 |
